Patent US5888972A, “Peptide compounds, their preparation and uses” (Fujisawa Pharmaceutical Co., Ltd., priority 1993, dated 1999)
pIC50: −log10 of the molar value.

Biological target: endothelin receptors
Experiment: Radioligand binding assay: [^125 I]ET-1 binding in porcine kidney membrane
Settings: membranes from inner medulla of porcine kidney; [^125 I]ET-1 16 pM; 60 minutes at 23° C.; read-out: Effect on specific binding of [^125 I]ET-1 in porcine kidney membrane, IC50
Protocol: Radioligand binding assay:
(a) Crude receptor membrane preparation:
Membranes as endothelin receptors were isolated from inner medulla of porcine kidney. The inner medulla of porcine kidney was placed in ice-cold buffer (0.25M sucrose, 5 mM Tris-HCl, 0.1 mM EDTA, pH 7.5). The inner medulla was homogenized in five volumes (w/v) of ice-cold buffer using a Brinkman Polytron PT-10 at a setting of 16,000 rpm for three 10-sec periods. The homogenate was centrifuged at 10,000×g for 20 minutes at 4° C. The pellet was discarded and the supernatant was centrifuged at 100,000×g for 60 minutes at 4° C. […]
To determine [^125 I]ET-1 binding to kidney, membrane suspensions prepared from kidney (10 μg of protein) were incubated by constant shaking for 60 minutes at 23° C. with [^125 I]ET-1 (range, 4-900 pM) in a total volume of 250 μl of buffer 1 that contained 0.1 mg/ml of bovine serum albumin. […] The filter disks were washed three times with 0.2 ml of ice-cold 50 mM Tris-HCl buffer (pH 7.5), and the radioactivity was counted in a gamma counter (Hewlett-Packard) with an efficiency of 71%. […] The Kd was determined by Scatchard analysis. […]

pIC50: 7.17
Structure (SMILES): CC(C)C[C@@H](C(=O)N[C@H](Cc1cccc2ccccc12)C(=O)N[C@@H](C(=O)O)C(C)C)N(CCN(C)Cc1cccnc1)C(=O)Cc1ccccc1Cl [Compound A]
